# Source: article PMC8927846 (Materials Today Bio, 2022)
# Tests used:
# [1] = system: hiPS-BMEC (human iPS-derived BMEC-like cells) monolayer; test: Transwell permeability across hiPS-BMEC monolayer; format: in vitro ADME; settings: cys-T7 versus cys-Tfr-T12 peptide
# [2] = molecular target: transferrin receptor (TfR); settings: read-out: Dissociation constant Kd to TfR; cited from earlier work
# hiPS-BMEC = test: Confocal imaging of uptake and colocalization in hiPS-BMEC; format: cell-based, human; settings: 125 nM AF 488-Tf, 1250 nM unlabeled Tf, 1 h, 37 °C
# HBEC = test: Confocal imaging of uptake in HBEC; format: cell-based, human; settings: 125 nM AF 488-Tf, 1250 nM unlabeled Tf, 1 h, 37 °C
Substance,Kd [2],other results
CHAIYPRH [cys-T7 peptide],–,Permeability compared between the two peptides [1]: higher permeability
HAIYPRH [T7 peptide],10 nM,–
"Tf: unlabeled transferrin, the native ligand of TfR",2.8 nM,–
THRPPMWSPVWP [Tfr-T12 peptide],15 nM,–
AF 488-Tf: Alexa Fluor 488 labeled transferrin,–,Internalization on co-incubation with 10-fold excess of unlabeled Tf (hiPS-BMEC): reduced internalization; Internalization on co-incubation with 10-fold excess of unlabeled Tf (HBEC): reduced internalization
